Measurements reported in PMC8279484 (Journal of Medicinal Chemistry, 2021).

Molecular target: T1, ALX/FPR2 receptor (Homo sapiens, UniProt P25090)
T1 construct: host or cells: HEK-293, stably double-transfected FPR2+/Gαq+
T1 sequence (P25090 1-351): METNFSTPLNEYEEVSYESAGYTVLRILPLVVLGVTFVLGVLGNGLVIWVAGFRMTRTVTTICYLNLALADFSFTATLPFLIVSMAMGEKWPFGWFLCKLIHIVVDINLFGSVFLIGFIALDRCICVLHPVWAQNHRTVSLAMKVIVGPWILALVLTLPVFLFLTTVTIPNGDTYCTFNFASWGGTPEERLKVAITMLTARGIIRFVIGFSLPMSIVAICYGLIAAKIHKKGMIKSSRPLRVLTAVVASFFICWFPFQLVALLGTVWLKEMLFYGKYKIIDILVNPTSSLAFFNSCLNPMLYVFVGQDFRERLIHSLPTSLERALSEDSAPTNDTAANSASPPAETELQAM
Experiment: Intracellular calcium flux in FPR2+/Gαq+ stably transfected HEK-293
Format: cell-based
Details: for Emax: HEK293, % delta calcium signal relative to peak of full agonist (1), 10 pM–100 nM, read-out: Efficacy Emax (%)
Experimental: HEK-293-transfected and wt cell lines were cultured in Dulbecco’s modified Eagle’s medium (DMEM Glutamax, 4 mM L-glu and 4.50 g/L glucose—Gibco, Ireland) supplemented with heat-inactivated (30 min at 56C) 10% (v/v) FBS (Invitrogen, U.K.), 50 U penicillin, and 50 μg of streptomycin (Invitrogen, U.K.). As stably double-transfected FPR2^+/Gαq^+ HEK-293 cells were resistant to Geneticin and Hygromycin, these were used as selective antibiotics (500 and 100 μg/mL, respectively) to maintain the stable double transfection with the ALX/FPR2 receptor and the Gαq subunit coupled to it. Immediately prior to calcium measurement, fluorescently labeled cells were treated with 10^–11/–9/–7M LXA41 or sLXms using an injection system coupled to the fluorescence reader.
To explore the mechanism of action through which the sLXm lead compound exerts the effects seen here, its interaction with the ALX/FPR2 receptor was investigated and agonist-induced intracellular calcium transients were measured using an engineered cell line stably overexpressing the ALX/FPR2 receptor and the Gαq subunit coupled to it (Figure S6). Wild-type HEK cells were used as controls, to verify the specificity of the agonism toward ALX/FPR2, as previously reported.[36] Briefly, prior to cell plating, sterile 96-well plates (black-sided with optically clear glass flat bottoms) were PDL-coated overnight. Subsequently, 2 × 10^5 wild-type cells and overexpressed cells/well were cultured for 18 h in DMEM complete media (containing Ca^2+ and Mg^2+) to facilitate adherence prior to labeling with Fluo-4 dye. After 1 h of incubation at 37 °C with Fluo-4, cells were gently washed twice and placed in 100% Hanks’ balanced salt solution (HBSS; 37 °C) before reading the fluorescence (485/535 nm), using a spectrophotometer conjugated with an injection system (Clariostar BMG LABTECH plate reader), allowing addition to the cells of controls ([…], 2 nM Wp, a synthetic ALX/FPR2 agonist) or experimental treatments [10 pM, 1 nM, and 100 nM LXA41 or (R)-6].
During calcium flux measurement, the kinetic steps involved were the following: the baseline fluorescent signal was measured for 20 s, followed by 100 s immediately after agonist injection. Subsequently, 2% Triton-X-100 was added to lyse the cells (monitoring for 20 s the maximal release of calcium ions in the extracellular environment) and, finally, 25 mM tetraacetic acid (EGTA) was added to chelate calcium ions (monitoring for additional 20 s the minimal detection of calcium ions in the extracellular environment) (Figure S7).
The “coding” of the heat-map indicates the arbitrary criteria to assign points to each single PD component (efficacy = Imax or Emax; potency = IC50 or EC50; slope = HS) to generate a final (aggregate) relative PD score. If a single PD component was greater than the reference level (x > 1), then the single-component relative score was arbitrarily set to +1 (light green) or +2 (dark green). If a single PD component was equal to the reference level (x = 1), then the single-component relative score was arbitrarily set to 0 (gray). If a single PD component was smaller than the reference level (x < 1), then the single-component relative score was arbitrarily set to −1 (light red) or −2 (dark red). If the curve of a single PD component was best fitting to a flat line (x = 0), then the single-component relative score was arbitrarily set to −4 (purple) (Table S1).

| Slope HS | type of agonism at ALX/FPR2 | ALX/FPR2 activation lower than that induced by native LXA4 (both at 10 pM) [%] | (Single component) Rel. Score: Rel. Eff. (relative to LXA4 (1)) | (Single component) Rel. Score: Rel. Sl. (relative to LXA4 (1)) | Efficacy Rel. Eff. (relative to LXA4 (1)) | Potency Rel. Pot. (relative to LXA4 (1)) | Rel. Slope (relative to LXA4 (1)) | Emax [%] | (Aggregate) Rel. PD Score (relative to LXA4 (1)) | SMILES |
| --- | --- | --- | --- | --- | --- | --- | --- | --- | --- | --- |
| 220 | equipotent partial agonist | 40 | -2 | 1 (1 < x < 10) | 0.61 | 1 | 1.46 | – | – | CCCCC[C@@H](O)c1nc2ccccc2nc1/C=C/[C@@H](O)[C@@H](O)CCCC(=O)OC [(R)-6, Methyl (5S,6R,E)-5,6-Dihydroxy-8-(3-((R)-1-hydroxyhexyl)quinoxalin-2-yl)oct-7-enoate] |
| 150 | full agonist | – | – | – | 1 | 1 | 1 | 100 | – | CCCCC[C@H](O)/C=C/C=C\C=C\C=C\[C@@H](O)[C@@H](O)CCCC(=O)O [Compound 1, LXA4] |
| 258 | – | – | – | 2 (x ≥ 10) | 0.99 | 1 | 1.72 | 99 ± 17 | 2 | CCCCC[C@@H](O)c1c(/C=C/[C@@H](O)[C@@H](O)CCCC(=O)OC)nc(C)n1C [Compound 5, imidazolo-LXA4] |
